In one assay the test system is PHK. The experiment in a line: PHK protein kinase assay. In kind it is biochemical, human. Conditions: PHK. The source says: (§1) All protein kinases were of human origin and encoded full length proteins, unless indicated otherwise. They were either expressed as glutathione S-transferase (GST) fusion proteins in Escherichia Coli or as hexahistidine (His6)-tagged proteins in insect Sf21 cells. GST fusion proteins were purified by affinity chromatography on glutathione-Sepharose, and His6-tagged proteins on nickel/nitriloacetate-agarose. The procedures for expressing some of the protein kinases used herein have been detailed previously.^8,9 The following sections outline the DNA vectors synthesised and the procedures used to express and purifying protein kinases that have not been reported previously.
(§2) All assays (25.5 μl) were carried out at room temperature (21° C.) and were linear with respect to time and enzyme concentration under the conditions used. Assays were performed for 30 min using Multidrop Micro reagent dispensers (Thermo Electron Corporation, Waltham, Mass. 02454, USA) in a 96-well format. The concentration of magnesium acetate in the assays was 10 mM and the [γ-33P] ATP (800 cpm/pmol) was used at 5, 20 or 50 μM as indicated, in order to be at or below the Km for ATP for each enzyme. Protein kinases assayed at 5 μM ATP were: —ERK1, ERK8, PKBα, MARK3, Aurora C. Protein kinases assayed at 20 μM ATP were: —JNK1, PDK1, CHK1, CHK2, CDK2 and Aurora B. Protein kinases assayed at 50 μM ATP were: —MNK2, IKKepsilon and TBK1.
(§3) The assays were initiated with MgATP, stopped by addition of 5 μl of 0.5 M orthophosphoric acid and spotted on to P81 filterplates using a unifilter harvester (PerkinElmer, Boston, Mass. 02118, USA). The IC50 values of inhibitors were determined after carrying out assays at 10 different concentrations of each compound.
(§4) Unless stated otherwise, enzymes were diluted in 50 mM Tris/HCl pH 7.5, 0.1 mM EGTA, 1 mg/ml BSA, 0.1% (v/v) 2-mercaptoethanol and assayed in 50 mM Tris/HCl pH 7.5, 0.1 mM EGTA, 0.1% (v/v) 2-mercaptoethanol.

A further assay deals with T1, CSK (Homo sapiens, UniProt P41240).
T1 construct: All protein kinases were of human origin and encoded full length proteins, unless indicated otherwise; made in house
The experiment in a line: CSK protein kinase assay. The class given is biochemical. As to conditions: CSK, read-out: residual kinase activity.
Source text: as §1, §2, §3, §4

The next assay deals with T2, PIM2 (Homo sapiens, UniProt Q9P1W9).
T2 construct: All protein kinases were of human origin and encoded full length proteins, unless indicated otherwise; made in house
Briefly: PIM2 protein kinase assay. As to conditions: PIM2, read-out: residual kinase activity. The class given is biochemical.
Source text: as §1, §2, §3, §4

The next assay addresses T3, Src (Homo sapiens, UniProt P12931).
T3 construct: All protein kinases were of human origin and encoded full length proteins, unless indicated otherwise; made in house
The experiment in a line: Src protein kinase assay. As to conditions: Src, read-out: residual kinase activity. The class given is biochemical.
Source text: as §1, §2, §3, §4

In the next assay the target is T4, MST4 (Homo sapiens, UniProt Q9P289).
T4 construct: All protein kinases were of human origin and encoded full length proteins, unless indicated otherwise; made in house
Briefly: MST4 protein kinase assay. In kind it is biochemical. As to conditions: MST4, read-out: residual kinase activity.
Source text: as §1, §2, §3, §4

The next assay deals with T5, MELK (Homo sapiens, UniProt Q14680).
T5 construct: All protein kinases were of human origin and encoded full length proteins, unless indicated otherwise; made in house
The experiment in a line: MELK protein kinase assay. As to conditions: MELK, read-out: residual kinase activity. The class given is biochemical.
Source text: as §1, §2, §3, §4

In a further assay the target is T6, GSK3b (Homo sapiens, UniProt P49841).
T6 construct: All protein kinases were of human origin and encoded full length proteins, unless indicated otherwise; made in house
Briefly: GSK3b protein kinase assay. The class given is biochemical. As to conditions: GSK3b, read-out: residual kinase activity.
Source text: as §1, §2, §3, §4

A further assay deals with T7, JNK2 (Homo sapiens, UniProt P45984).
T7 construct: All protein kinases were of human origin and encoded full length proteins, unless indicated otherwise; made in house
Briefly: JNK2 protein kinase assay. Conditions: JNK2, read-out: residual kinase activity. In kind it is biochemical.
Source text: as §1
In order to produce activated forms of Aurora B and Aurora C, insect Sf21 cells were incubated for 1 h with the protein phosphatase inhibitor okadaic acid (50 nM). JNK isoforms were activated with MKK4 and MKK7, MNK2 with p38α MAPkinase; PKBα, PKBβ, with PDK1, and ERK1 with MKK1. To activate CDK2, bacterial pellets expressing cyclin A2 and CDK2 were mixed together, lyse and purified on glutathione Sepharose. The GST-tags were removed by cleavage with PreScission protease and the CDK2-cyclin A2 complex purified by chromatography on SP-Sepharose. It was then activated with CAK1/CDK7 followed by chromatography on nickel-nitrilotriacetate agarose to remove CAK1/CDK7, which binds to this column by virtue of its C-terminal His6 tag. All the other protein kinases were active as expressed.
as §2, §3, §4

Another assay addresses T8, BRSK2 (Homo sapiens, UniProt Q8IWQ3).
T8 construct: All protein kinases were of human origin and encoded full length proteins, unless indicated otherwise; made in house
T8 sequence (Q8IWQ3 1-736): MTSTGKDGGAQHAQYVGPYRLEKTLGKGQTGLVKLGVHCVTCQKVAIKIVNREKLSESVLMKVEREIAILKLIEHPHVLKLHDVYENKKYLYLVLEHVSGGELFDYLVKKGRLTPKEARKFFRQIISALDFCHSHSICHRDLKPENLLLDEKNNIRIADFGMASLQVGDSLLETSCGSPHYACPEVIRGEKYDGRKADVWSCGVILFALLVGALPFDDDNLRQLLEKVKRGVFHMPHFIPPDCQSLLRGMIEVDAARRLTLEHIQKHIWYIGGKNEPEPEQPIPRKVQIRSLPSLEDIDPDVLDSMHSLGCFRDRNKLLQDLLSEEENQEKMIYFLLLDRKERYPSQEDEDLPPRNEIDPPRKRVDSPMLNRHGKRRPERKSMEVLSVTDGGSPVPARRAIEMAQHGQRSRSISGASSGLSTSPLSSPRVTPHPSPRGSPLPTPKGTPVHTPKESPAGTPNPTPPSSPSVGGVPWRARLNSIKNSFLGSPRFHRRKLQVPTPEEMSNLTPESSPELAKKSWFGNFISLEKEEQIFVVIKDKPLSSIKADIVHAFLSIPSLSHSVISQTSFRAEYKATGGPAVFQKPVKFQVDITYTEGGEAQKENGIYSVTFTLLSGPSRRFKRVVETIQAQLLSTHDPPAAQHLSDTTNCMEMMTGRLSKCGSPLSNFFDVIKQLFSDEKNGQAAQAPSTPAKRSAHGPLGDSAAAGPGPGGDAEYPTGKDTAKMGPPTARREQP
The experiment in a line: BRSK2 protein kinase assay. In kind it is biochemical. Conditions: BRSK2, read-out: residual kinase activity.
Source text: as §1, §2, §3, §4

In another assay the target is T9, HIPK2 (Homo sapiens, UniProt Q9H2X6).
T9 construct: All protein kinases were of human origin and encoded full length proteins, unless indicated otherwise; made in house
The experiment in a line: HIPK2 protein kinase assay. As to conditions: HIPK2, read-out: residual kinase activity. In kind it is biochemical.
Source text: as §1, §2, §3, §4

SMILES strings stand for the structures. Structures can show the parent of a compound that is named as a salt.

T5 sequence (Q14680 whole entry): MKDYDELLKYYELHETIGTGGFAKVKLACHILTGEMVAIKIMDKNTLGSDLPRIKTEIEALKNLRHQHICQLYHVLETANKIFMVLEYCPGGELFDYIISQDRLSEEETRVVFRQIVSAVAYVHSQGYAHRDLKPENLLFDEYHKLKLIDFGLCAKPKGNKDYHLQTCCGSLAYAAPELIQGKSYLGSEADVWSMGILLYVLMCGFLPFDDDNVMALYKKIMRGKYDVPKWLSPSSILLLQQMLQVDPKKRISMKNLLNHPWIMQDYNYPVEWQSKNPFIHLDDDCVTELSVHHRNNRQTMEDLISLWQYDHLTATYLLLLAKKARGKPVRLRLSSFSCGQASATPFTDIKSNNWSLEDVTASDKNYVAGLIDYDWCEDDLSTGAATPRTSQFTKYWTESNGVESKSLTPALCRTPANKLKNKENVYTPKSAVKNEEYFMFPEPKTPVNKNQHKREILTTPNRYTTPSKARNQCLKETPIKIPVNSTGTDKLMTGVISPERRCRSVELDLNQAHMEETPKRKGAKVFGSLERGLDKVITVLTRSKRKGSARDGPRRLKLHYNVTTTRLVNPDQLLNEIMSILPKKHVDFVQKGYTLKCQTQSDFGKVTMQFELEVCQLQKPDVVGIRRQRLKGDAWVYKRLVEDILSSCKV
T9 sequence (Q9H2X6 165-564 limits assumed): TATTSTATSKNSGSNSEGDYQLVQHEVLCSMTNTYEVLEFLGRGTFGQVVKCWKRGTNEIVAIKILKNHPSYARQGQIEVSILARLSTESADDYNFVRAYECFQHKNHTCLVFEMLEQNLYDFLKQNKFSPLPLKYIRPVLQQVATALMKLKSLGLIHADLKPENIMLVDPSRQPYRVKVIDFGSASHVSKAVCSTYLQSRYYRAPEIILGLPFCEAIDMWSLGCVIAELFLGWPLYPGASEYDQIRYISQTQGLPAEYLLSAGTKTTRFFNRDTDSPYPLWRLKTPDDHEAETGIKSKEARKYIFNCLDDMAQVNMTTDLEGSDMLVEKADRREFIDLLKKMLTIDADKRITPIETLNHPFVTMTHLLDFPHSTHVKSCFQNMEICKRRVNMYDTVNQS
T4 sequence (Q9P289 whole entry): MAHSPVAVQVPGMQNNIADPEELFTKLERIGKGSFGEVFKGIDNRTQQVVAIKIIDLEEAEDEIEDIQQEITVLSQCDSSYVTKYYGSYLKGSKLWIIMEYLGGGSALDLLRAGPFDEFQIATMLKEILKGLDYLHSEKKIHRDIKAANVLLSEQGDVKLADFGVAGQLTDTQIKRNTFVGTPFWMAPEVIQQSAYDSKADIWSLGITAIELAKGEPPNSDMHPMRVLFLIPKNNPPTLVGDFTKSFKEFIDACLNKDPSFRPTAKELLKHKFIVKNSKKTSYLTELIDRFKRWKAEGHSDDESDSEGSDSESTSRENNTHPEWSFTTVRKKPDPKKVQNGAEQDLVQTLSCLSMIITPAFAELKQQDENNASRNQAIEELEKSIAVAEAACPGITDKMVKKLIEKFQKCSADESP
T1 sequence (P41240 whole entry): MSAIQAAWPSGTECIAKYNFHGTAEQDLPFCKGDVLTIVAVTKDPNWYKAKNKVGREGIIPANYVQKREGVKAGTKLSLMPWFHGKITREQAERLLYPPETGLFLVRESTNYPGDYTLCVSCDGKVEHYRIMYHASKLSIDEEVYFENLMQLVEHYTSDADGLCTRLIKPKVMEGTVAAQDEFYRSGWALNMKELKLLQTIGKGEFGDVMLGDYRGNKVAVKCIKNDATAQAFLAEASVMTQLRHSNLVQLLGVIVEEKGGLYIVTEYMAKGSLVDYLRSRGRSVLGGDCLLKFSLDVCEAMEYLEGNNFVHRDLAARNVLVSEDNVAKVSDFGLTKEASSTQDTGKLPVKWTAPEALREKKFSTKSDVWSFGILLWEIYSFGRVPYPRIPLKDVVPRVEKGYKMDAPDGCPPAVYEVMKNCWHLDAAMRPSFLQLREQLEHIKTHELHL
T3 sequence (P12931 whole entry): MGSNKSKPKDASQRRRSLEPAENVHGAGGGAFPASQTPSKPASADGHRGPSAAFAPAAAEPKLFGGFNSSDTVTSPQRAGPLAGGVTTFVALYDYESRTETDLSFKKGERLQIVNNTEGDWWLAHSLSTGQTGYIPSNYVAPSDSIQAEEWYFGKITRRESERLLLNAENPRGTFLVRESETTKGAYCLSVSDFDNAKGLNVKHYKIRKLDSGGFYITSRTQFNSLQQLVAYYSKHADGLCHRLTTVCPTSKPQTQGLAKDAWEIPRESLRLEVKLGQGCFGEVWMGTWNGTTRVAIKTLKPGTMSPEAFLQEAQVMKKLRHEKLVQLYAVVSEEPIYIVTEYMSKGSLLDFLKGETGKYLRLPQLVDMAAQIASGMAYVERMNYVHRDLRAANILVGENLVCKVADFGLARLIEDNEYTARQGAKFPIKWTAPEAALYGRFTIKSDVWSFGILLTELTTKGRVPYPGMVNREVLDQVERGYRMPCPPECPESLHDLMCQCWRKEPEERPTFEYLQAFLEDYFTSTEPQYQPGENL
T2 sequence (Q9P1W9 whole entry): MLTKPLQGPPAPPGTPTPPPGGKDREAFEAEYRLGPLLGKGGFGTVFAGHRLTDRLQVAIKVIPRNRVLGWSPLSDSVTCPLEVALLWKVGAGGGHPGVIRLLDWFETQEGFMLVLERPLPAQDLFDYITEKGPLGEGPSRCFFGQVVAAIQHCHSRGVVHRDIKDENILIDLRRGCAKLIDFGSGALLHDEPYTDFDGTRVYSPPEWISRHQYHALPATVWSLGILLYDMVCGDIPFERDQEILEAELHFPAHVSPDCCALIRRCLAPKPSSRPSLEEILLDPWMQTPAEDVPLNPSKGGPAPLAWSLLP
T6 sequence (P49841 whole entry): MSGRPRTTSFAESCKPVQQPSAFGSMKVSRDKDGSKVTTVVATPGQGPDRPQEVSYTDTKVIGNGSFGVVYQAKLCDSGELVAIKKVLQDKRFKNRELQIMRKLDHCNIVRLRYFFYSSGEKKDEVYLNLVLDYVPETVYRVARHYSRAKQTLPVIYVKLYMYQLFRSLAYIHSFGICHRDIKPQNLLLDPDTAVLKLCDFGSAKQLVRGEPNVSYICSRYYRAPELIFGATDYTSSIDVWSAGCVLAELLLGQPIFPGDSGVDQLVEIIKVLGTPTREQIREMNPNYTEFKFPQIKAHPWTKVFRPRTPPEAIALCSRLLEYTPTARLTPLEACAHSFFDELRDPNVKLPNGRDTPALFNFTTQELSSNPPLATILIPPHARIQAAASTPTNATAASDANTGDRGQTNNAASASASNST
T7 sequence (P45984 whole entry): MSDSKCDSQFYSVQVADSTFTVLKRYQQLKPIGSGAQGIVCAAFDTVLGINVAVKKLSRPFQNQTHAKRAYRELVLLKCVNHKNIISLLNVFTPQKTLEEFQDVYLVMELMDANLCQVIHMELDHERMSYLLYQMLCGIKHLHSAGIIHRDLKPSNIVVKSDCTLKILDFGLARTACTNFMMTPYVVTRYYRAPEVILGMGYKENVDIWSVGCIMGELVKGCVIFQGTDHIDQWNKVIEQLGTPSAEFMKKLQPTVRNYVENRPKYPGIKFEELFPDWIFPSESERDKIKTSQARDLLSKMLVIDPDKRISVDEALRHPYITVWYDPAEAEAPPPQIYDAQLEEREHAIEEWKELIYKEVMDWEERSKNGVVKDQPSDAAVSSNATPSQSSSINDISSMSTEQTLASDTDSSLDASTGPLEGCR

As for `O=C(NCCCNc1nc(Nc2cccc(N3CCCC3=O)c2)ncc1C1CC1)c1cccs1` [Example 47, Thiophene-2-carboxylic acid (3-{5-cyclopropyl-2-[3-(2-oxo-pyrrolidin-1-yl)-phenylamino]-pyrimidin-4-ylamino}-propyl)-amide. Hydrochloride salt], the figures for the residual kinase activity in the assay on PHK (1 μM compound) and in the assay on PHK (10 μM compound) were 78% and 24%, respectively. Further, the remaining activity at 1 µM on CSK (1 μM compound) is 77%; at PIM2 (1 μM compound) it was 101%; at Src (1 μM compound) it was 80%; at MST4 (1 μM compound), 124%; at MELK (1 μM compound), 14%; on GSK3b (1 μM compound), 73%. Further, the remaining activity at 1 µM was determined as 98% at JNK2 (1 μM compound), 91% at BRSK2 (1 μM compound) and 88% on HIPK2 (1 μM compound). Further, the remaining activity at 10 µM on CSK (10 μM compound) was determined as 71%; on PIM2 (10 μM compound) it was 93%; at Src (10 μM compound), 67%; on MST4 (10 μM compound) it was 111%; on MELK (10 μM compound), 27%; at GSK3b (10 μM compound) it was 31%. In addition, the values for the remaining activity at 10 µM on JNK2 (10 μM compound), on BRSK2 (10 μM compound) and on HIPK2 (10 μM compound) were 89%, 36% and 67%, respectively.

For the origin of these results see patent US20100056524A1, “Compound” (priority 2008, published 2010).
